Test systems include SK-MEL-28 melanoma; HCT-116 colon; M14 melanoma; UACC-257 melanoma; SN12C renal; NCI-H226 lung; OVCAR-3 ovarian; SNB-75 CNS; HT29 colon; HS 578T breast.
What all share (assay): NCI tumour cell line growth inhibition, 48 h

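Values below derive from 48-hour exposures of cells grown in 96-well plates, with endpoints linearly interpolated between the two concentrations bracketing the appropriate inhibition level. GI50 is the concentration that inhibits growth by half. Definition used: TGI = concentration required for complete inhibition of growth.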 Bounds are passed on as bounds.

In the case of `CC(=O)O[C@@H]1C2CCC3C(CC[C@@]4(C)C3CC[C@@H]4C(C)N(C)C)[C@@]2(C)CC[C@@H]1NC(=O)C=C(C)C` (stereo not given in full), the GI50 in the experiment with SK-MEL-28 melanoma is 1.73 µM; with HCT-116 colon it was 1.54 µM; in the experiment on M14 melanoma, 1.85 µM; with UACC-257 melanoma, 2.33 µM; in the experiment with SN12C renal, 3.2 µM; in the experiment with NCI-H226 lung, 5.22 µM. Further, the GI50 with OVCAR-3 ovarian was 2.24 µM; in the experiment on SNB-75 CNS it was 2.35 µM; in the experiment with HT29 colon, 0.552 µM; in the experiment with HS 578T breast, 2.2 µM. In addition, the TGI is 3.27 µM with SK-MEL-28 melanoma; 3.49 µM with HCT-116 colon; 3.63 µM with M14 melanoma; 4.98 µM with UACC-257 melanoma; 12.3 µM in the experiment with SN12C renal; 19.6 µM in the experiment on NCI-H226 lung. Moreover, the TGI is 7.42 µM with OVCAR-3 ovarian, 9.31 µM with SNB-75 CNS, 1.97 µM with HT29 colon and 6.82 µM with HS 578T breast.
Turning to `CCCCCCCCCCCCCCCC1=NCC[N+]1(CCO)CCO`, the GI50 in the experiment with SK-MEL-28 melanoma was 5.1 µM; in the experiment with HCT-116 colon, 1.59 µM; in the experiment on M14 melanoma it was 1.62 µM; with UACC-257 melanoma, 6.48 µM; in the experiment on SN12C renal it was 1.85 µM; in the experiment with NCI-H226 lung it was 3.17 µM. For the same molecule, the GI50 with OVCAR-3 ovarian was 2.52 µM; in the experiment on SNB-75 CNS, 2.47 µM; in the experiment on HT29 colon it was 2.57 µM; in the experiment on HS 578T breast, 2.51 µM. The TGI with SK-MEL-28 melanoma was 16.8 µM; in the experiment on HCT-116 colon, 2.94 µM; in the experiment on M14 melanoma, 3.01 µM; with UACC-257 melanoma, 20.7 µM; with SN12C renal, 3.92 µM; with NCI-H226 lung, 12.3 µM. Besides, the TGI stood at 5.74 µM with OVCAR-3 ovarian, 16.6 µM with SNB-75 CNS, 9.13 µM with HT29 colon and 7.17 µM with HS 578T breast.
Take `Nc1nc(/C=C\c2ccc([N+](=O)[O-])s2)nc(N2CCN(c3ccccc3)CC2)n1`: the GI50 in the experiment on SK-MEL-28 melanoma was 24.9 µM; with HCT-116 colon it was 17.2 µM; in the experiment on M14 melanoma it was 19.5 µM; in the experiment on UACC-257 melanoma, 20.8 µM; with SN12C renal it was 14.3 µM; in the experiment with NCI-H226 lung it was 15.2 µM. For the same molecule, the GI50 in the experiment with OVCAR-3 ovarian is 19 µM; in the experiment with SNB-75 CNS, 33.1 µM; in the experiment with HT29 colon, 27.5 µM; with HS 578T breast it was 0.54 µM. The TGI in the experiment on SK-MEL-28 melanoma amounted to 47.1 µM; in the experiment on HCT-116 colon, 31.5 µM; with M14 melanoma it was 39.3 µM; in the experiment on UACC-257 melanoma, 44.2 µM; in the experiment with SN12C renal, 34.5 µM; in the experiment with NCI-H226 lung it was 36.4 µM. In addition, the TGI with OVCAR-3 ovarian came to 35.9 µM; in the experiment with SNB-75 CNS it was 60.5 µM; in the experiment on HT29 colon, 70.4 µM; with HS 578T breast it was 14.6 µM.
Turning to `Oc1ccc(C=Nc2ccccc2O)cc1`, the TGI in the experiment on SK-MEL-28 melanoma is over 100 µM; in the experiment on HCT-116 colon it was over 100 µM; with M14 melanoma, over 100 µM; with UACC-257 melanoma, 65.3 µM; with SN12C renal, over 100 µM; with NCI-H226 lung it was over 100 µM. In addition, the TGI in the experiment on OVCAR-3 ovarian, with SNB-75 CNS, in the experiment on HT29 colon and with HS 578T breast was over 100 µM throughout.
Turning to `CC1Cc2c(Cl)ncnc2N(C)c2ccc(Cl)cc21` (stereo not given), the GI50 in the experiment on SK-MEL-28 melanoma is 0.394 µM; with HCT-116 colon, 0.314 µM; with M14 melanoma, 0.312 µM; in the experiment with UACC-257 melanoma, 0.429 µM; in the experiment on SN12C renal, 0.411 µM; with NCI-H226 lung, 0.241 µM. For the same molecule, the GI50 with OVCAR-3 ovarian is 0.21 µM; in the experiment with SNB-75 CNS, 0.0795 µM; in the experiment on HT29 colon, 0.232 µM; in the experiment with HS 578T breast, 0.342 µM. Besides, the TGI with SK-MEL-28 melanoma came out at 95.1 µM; in the experiment on HCT-116 colon it was 12.6 µM; in the experiment on M14 melanoma, 29.7 µM; in the experiment with UACC-257 melanoma it was 78.5 µM; with SN12C renal, 19.3 µM; in the experiment with NCI-H226 lung, 0.602 µM. Further, the TGI is 0.477 µM in the experiment on OVCAR-3 ovarian, over 100 µM in the experiment on SNB-75 CNS, 0.846 µM in the experiment with HT29 colon and over 100 µM with HS 578T breast.
Regarding `COc1ccc2c(c1)C(=O)c1c-2n(CCCN(C)C)c(=O)c2ccccc12`, the GI50 in the experiment on SK-MEL-28 melanoma is 1.77 µM; in the experiment on HCT-116 colon, 0.213 µM; in the experiment on M14 melanoma, 0.483 µM; in the experiment on UACC-257 melanoma, 0.929 µM; with SN12C renal, 0.255 µM; in the experiment with NCI-H226 lung, 0.413 µM. The GI50 with OVCAR-3 ovarian is 0.551 µM; in the experiment with SNB-75 CNS, 0.648 µM; in the experiment on HT29 colon, 0.275 µM; in the experiment with HS 578T breast it was 0.624 µM. Moreover, the TGI with SK-MEL-28 melanoma worked out at 8.12 µM; with HCT-116 colon it was 1.42 µM; with M14 melanoma, 1.87 µM; in the experiment on UACC-257 melanoma, 6.22 µM; in the experiment with SN12C renal, 5.7 µM; in the experiment on NCI-H226 lung, 2.59 µM. The TGI in the experiment on OVCAR-3 ovarian was 7.85 µM; in the experiment on SNB-75 CNS it was 5.29 µM; in the experiment on HT29 colon, 10.9 µM; with HS 578T breast it was 5.99 µM.
`Fc1ccc(-c2c(-c3ccncc3)nc3n2CCS3)cc1`: the GI50 with SK-MEL-28 melanoma, in the experiment on HCT-116 colon, with M14 melanoma, in the experiment on UACC-257 melanoma, in the experiment on SN12C renal and in the experiment with NCI-H226 lung was over 25 µM each time. Besides, the GI50 with OVCAR-3 ovarian, in the experiment with SNB-75 CNS, in the experiment with HT29 colon and in the experiment with HS 578T breast was over 25 µM throughout. For the same molecule, the TGI in the experiment on SK-MEL-28 melanoma, with HCT-116 colon, in the experiment with M14 melanoma, in the experiment on UACC-257 melanoma, in the experiment on SN12C renal and with NCI-H226 lung was over 25 µM each time. Besides, the TGI with OVCAR-3 ovarian, in the experiment with SNB-75 CNS, in the experiment on HT29 colon and in the experiment with HS 578T breast was over 25 µM throughout.
As for `Cc1cc2c(C(=O)NC[C@H](C)c3ccccc3)c(O)c(O)cc2c(O)c1-c1c(C)cc2c(C(=O)NC[C@H](C)c3ccccc3)c(O)c(O)cc2c1O`, the GI50 in the experiment with SK-MEL-28 melanoma is 0.437 µM; in the experiment on HCT-116 colon, 0.0346 µM; in the experiment with M14 melanoma, 0.438 µM; in the experiment with UACC-257 melanoma it was 1.37 µM; in the experiment on SN12C renal, 0.436 µM; in the experiment on NCI-H226 lung it was 0.244 µM. For the same molecule, the GI50 in the experiment on OVCAR-3 ovarian is 0.306 µM; with SNB-75 CNS, 0.251 µM; in the experiment on HT29 colon, 0.355 µM; with HS 578T breast, 0.274 µM. For the same molecule, the TGI with SK-MEL-28 melanoma worked out at 4.41 µM; in the experiment with HCT-116 colon, 9.59 µM; with M14 melanoma it was 5.72 µM; in the experiment with UACC-257 melanoma, 7.23 µM; with SN12C renal, 10.6 µM; with NCI-H226 lung, 0.987 µM. The TGI with OVCAR-3 ovarian amounted to 1.55 µM; in the experiment with SNB-75 CNS, 1.98 µM; in the experiment on HT29 colon, 11 µM; with HS 578T breast it was 2.56 µM.

These data come from PubChem BioAssay (NCI).
